{
  "source": "PubChem BioAssay (NCI)",
  "assay_in_all_cases": "NCI tumour cell line growth inhibition, 48 h",
  "key": {"NCI-H226 lung": {"test_system": "NCI-H226 lung"}, "NCI-H23 lung": {"test_system": "NCI-H23 lung"}, "NCI-H460 lung": {"test_system": "NCI-H460 lung"}, "NCI-H522 lung": {"test_system": "NCI-H522 lung"}, "NCI/ADR-RES ovarian": {"test_system": "NCI/ADR-RES ovarian"}, "OVCAR-3 ovarian": {"test_system": "OVCAR-3 ovarian"}, "OVCAR-4 ovarian": {"test_system": "OVCAR-4 ovarian"}, "OVCAR-5 ovarian": {"test_system": "OVCAR-5 ovarian"}, "OVCAR-8 ovarian": {"test_system": "OVCAR-8 ovarian"}, "PC-3 prostate": {"test_system": "PC-3 prostate"}, "RPMI-8226 leukemia": {"test_system": "RPMI-8226 leukemia"}, "RXF 393 renal": {"test_system": "RXF 393 renal"}, "SF-268 CNS": {"test_system": "SF-268 CNS"}, "SF-295 CNS": {"test_system": "SF-295 CNS"}, "SF-539 CNS": {"test_system": "SF-539 CNS"}, "SK-MEL-2 melanoma": {"test_system": "SK-MEL-2 melanoma"}, "SK-MEL-28 melanoma": {"test_system": "SK-MEL-28 melanoma"}, "SK-MEL-5 melanoma": {"test_system": "SK-MEL-5 melanoma"}, "SN12C renal": {"test_system": "SN12C renal"}, "SNB-19 CNS": {"test_system": "SNB-19 CNS"}, "SNB-75 CNS": {"test_system": "SNB-75 CNS"}, "SR leukemia": {"test_system": "SR leukemia"}, "SW-620 colon": {"test_system": "SW-620 colon"}, "T-47D breast": {"test_system": "T-47D breast"}, "TK-10 renal": {"test_system": "TK-10 renal"}, "U251 CNS": {"test_system": "U251 CNS"}, "UACC-257 melanoma": {"test_system": "UACC-257 melanoma"}, "UACC-62 melanoma": {"test_system": "UACC-62 melanoma"}, "UO-31 renal": {"test_system": "UO-31 renal"}},
  "note": "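Protocol summary: plate cells (96-well), add compound at 5 concentrations, incubate 48 h, interpolate endpoints linearly. GI50 = concentration required for 50% inhibition of growth. The concentration for full growth arrest is given as TGI.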",
  "data": [
    {"smiles": "CSC1=Nc2c(c(C)c(-c3ccccc3)n2CCCCl)C2=NC(=O)CN12", "values": [
      {"measurement": "TGI", "setting": "NCI-H226 lung", "result": 29.8, "unit": "µM"},
      {"measurement": "GI50", "setting": "NCI-H23 lung", "result": 8.26, "unit": "µM"},
      {"measurement": "TGI", "setting": "NCI-H23 lung", "result": 46.3, "unit": "µM"},
      {"measurement": "GI50", "setting": "NCI-H460 lung", "result": 3.7, "unit": "µM"},
      {"measurement": "TGI", "setting": "NCI-H460 lung", "result": 15, "unit": "µM"},
      {"measurement": "GI50", "setting": "NCI-H522 lung", "result": 3.86, "unit": "µM"},
      {"measurement": "TGI", "setting": "NCI-H522 lung", "result": 19.2, "unit": "µM"},
      {"measurement": "GI50", "setting": "NCI/ADR-RES ovarian", "result": 4.29, "unit": "µM"},
      {"measurement": "TGI", "setting": "NCI/ADR-RES ovarian", "result": "> 100", "unit": "µM"},
      {"measurement": "GI50", "setting": "OVCAR-3 ovarian", "result": 8.28, "unit": "µM"},
      {"measurement": "TGI", "setting": "OVCAR-3 ovarian", "result": 36.2, "unit": "µM"},
      {"measurement": "GI50", "setting": "OVCAR-4 ovarian", "result": 6.74, "unit": "µM"},
      {"measurement": "TGI", "setting": "OVCAR-4 ovarian", "result": 44.9, "unit": "µM"},
      {"measurement": "GI50", "setting": "OVCAR-5 ovarian", "result": 11.6, "unit": "µM"},
      {"measurement": "TGI", "setting": "OVCAR-5 ovarian", "result": 37.8, "unit": "µM"},
      {"measurement": "GI50", "setting": "OVCAR-8 ovarian", "result": 16.3, "unit": "µM"},
      {"measurement": "TGI", "setting": "OVCAR-8 ovarian", "result": 72.8, "unit": "µM"},
      {"measurement": "GI50", "setting": "PC-3 prostate", "result": 8.68, "unit": "µM"},
      {"measurement": "TGI", "setting": "PC-3 prostate", "result": "> 100", "unit": "µM"},
      {"measurement": "GI50", "setting": "RPMI-8226 leukemia", "result": 3.68, "unit": "µM"},
      {"measurement": "TGI", "setting": "RPMI-8226 leukemia", "result": 66.5, "unit": "µM"},
      {"measurement": "GI50", "setting": "RXF 393 renal", "result": 11.3, "unit": "µM"},
      {"measurement": "TGI", "setting": "RXF 393 renal", "result": 29.8, "unit": "µM"},
      {"measurement": "GI50", "setting": "SF-268 CNS", "result": 8.57, "unit": "µM"},
      {"measurement": "TGI", "setting": "SF-268 CNS", "result": 47.6, "unit": "µM"},
      {"measurement": "GI50", "setting": "SF-295 CNS", "result": 4.11, "unit": "µM"},
      {"measurement": "TGI", "setting": "SF-295 CNS", "result": 26.8, "unit": "µM"},
      {"measurement": "GI50", "setting": "SF-539 CNS", "result": 3.42, "unit": "µM"},
      {"measurement": "TGI", "setting": "SF-539 CNS", "result": 14, "unit": "µM"},
      {"measurement": "GI50", "setting": "SK-MEL-2 melanoma", "result": 10.4, "unit": "µM"},
      {"measurement": "TGI", "setting": "SK-MEL-2 melanoma", "result": 27.6, "unit": "µM"},
      {"measurement": "GI50", "setting": "SK-MEL-28 melanoma", "result": 10.2, "unit": "µM"},
      {"measurement": "TGI", "setting": "SK-MEL-28 melanoma", "result": 25.4, "unit": "µM"},
      {"measurement": "GI50", "setting": "SK-MEL-5 melanoma", "result": 3.49, "unit": "µM"},
      {"measurement": "TGI", "setting": "SK-MEL-5 melanoma", "result": 14.1, "unit": "µM"},
      {"measurement": "GI50", "setting": "SN12C renal", "result": 6.28, "unit": "µM"},
      {"measurement": "TGI", "setting": "SN12C renal", "result": 39, "unit": "µM"},
      {"measurement": "GI50", "setting": "SNB-19 CNS", "result": 3.97, "unit": "µM"},
      {"measurement": "TGI", "setting": "SNB-19 CNS", "result": 17.8, "unit": "µM"},
      {"measurement": "GI50", "setting": "SNB-75 CNS", "result": 2.83, "unit": "µM"},
      {"measurement": "TGI", "setting": "SNB-75 CNS", "result": 11.6, "unit": "µM"},
      {"measurement": "GI50", "setting": "SR leukemia", "result": 3.45, "unit": "µM"},
      {"measurement": "TGI", "setting": "SR leukemia", "result": "> 100", "unit": "µM"},
      {"measurement": "GI50", "setting": "SW-620 colon", "result": 4.79, "unit": "µM"},
      {"measurement": "TGI", "setting": "SW-620 colon", "result": 53.5, "unit": "µM"},
      {"measurement": "GI50", "setting": "T-47D breast", "result": 2.63, "unit": "µM"},
      {"measurement": "TGI", "setting": "T-47D breast", "result": 10.9, "unit": "µM"},
      {"measurement": "GI50", "setting": "TK-10 renal", "result": 8.45, "unit": "µM"},
      {"measurement": "TGI", "setting": "TK-10 renal", "result": 78.3, "unit": "µM"},
      {"measurement": "GI50", "setting": "U251 CNS", "result": 3.92, "unit": "µM"},
      {"measurement": "TGI", "setting": "U251 CNS", "result": 16.4, "unit": "µM"},
      {"measurement": "GI50", "setting": "UACC-257 melanoma", "result": 12.5, "unit": "µM"},
      {"measurement": "TGI", "setting": "UACC-257 melanoma", "result": 28.4, "unit": "µM"},
      {"measurement": "GI50", "setting": "UACC-62 melanoma", "result": 2.08, "unit": "µM"},
      {"measurement": "TGI", "setting": "UACC-62 melanoma", "result": 11.6, "unit": "µM"},
      {"measurement": "GI50", "setting": "UO-31 renal", "result": 10.5, "unit": "µM"},
      {"measurement": "TGI", "setting": "UO-31 renal", "result": 28.6, "unit": "µM"}
    ]}
  ]
}
